Measurements as given in patent US9718823B2, “2, 6-Di-nitrogen-containing substituted purine derivative, and preparation method, pharmaceutical composition and use thereof” (Zhejiang Medicine Co., Ltd. Xinchang Pharmaceutical Factory, priority 2013, dated 2017).
Counter-ions that a name gives are not always drawn.

How the values were obtained:
[1] = test system: PC-3 human prostate cancer cell strain; experiment: Antitumor cell proliferation in vitro, CCK-8 detection kit, PC-3; format: cell-based; conditions: Homo sapiens, PC-3, 72 h, PC-3 cells, 1st and 2nd test where printed
Protocol: The half inhibitory concentration IC50 of proliferation of three kinds of tumor cell strain (U87MG, PC-3, BT474) for 12 candidate compounds of the present invention is detected by CCK-8 detection kits.
PC-3 human prostate cancer cell strain (cell bank of Chinese Academy of Sciences)
The studied compounds are dissolved by DMSO to make the final concentration 10 mM.
• a) Collecting the cells in logarithmic phase, counting, and resuspending the cells with complete medium. • b) Adjusting the concentration of cells to a suitable concentration, inoculating in 96 well plates, each well is inoculated to 100 μl cell suspension.
c) incubating cells for 24 hours in a 5% CO2 incubator at temperature of 37° C., under the condition of 100% relative humidity.
a) The cells in logarithmic phase is collected, counted, resuspended with complete medium. The concentration of cells is adjusted to a suitable concentration (determined in accordance with the optimizable test results of cell density), and the cells is inoculated in 96 well plates, wherein each well is inoculated 100 μl cell suspension, Cells are incubated for 24 hours in 5% CO2 incubator at temperature of 37° C. under the condition of 100% relative humidity.
b) The test compounds are diluted to 500 μM with culture medium, then diluted in series eight times. […] as 25 μl/well. The final concentrations of the compounds are diluted from 100 μM to 0 μM, with 4 times dilution, and there are a total of 10 concentration points.
c) Cells are incubated for 72 hours in 5% CO2 incubator at temperature of 37° C. under the condition of 100% relative humidity.
d) The culture medium is aspirated and discarded, and complete medium containing 10% CCK-8 is incubated in a incubator at 37° C. for 2˜4 hours.
e) After shocking gently, the absorbance of the culture medium is measured at 450 nm wavelength on SpectraMax M5 Microplate Reader, with the absorbance at 650 nm as reference, to calculate the inhibition rate.

[2] = test system: PC-3 cell Akt (Ser473) phosphorylation; experiment: Inhibition of phosphorylation level of PC-3 cell Akt (Ser473), Cisbio HTRF phospho Akt (Ser473) cell-based assay; parameters: species or system human; conditions: hEGF 100 ng/ml stimulation, 1st and 2nd test where printed
Protocol: The inhibitory activity of the compounds of present invention to the phosphorylation level of PC-3 cell Akt (Ser473) is studied by using Cisbio HTRF phospho Akt (Ser473) cell-based assay test kit.
Cell strain: PC-3 prostate cancer cells line (cell bank of Chinese Academy of Sciences) is cultured by using culture medium (F12K+10% FBS).
hEGF is prepared as stock solution of 100 ug/ml with 10 mM acetic acid, and the stock solution is diluted to 200 ng/ml with serum-free medium, added 50 ul to each well to be stimulated.
b) Preparation of Complete Lysate • 4×Lysis Buffer is diluted 4 times with ddH2O to prepare 1×Lysis Buffer. • 100×Blocking Reagent is diluted 100 times with 1×Lysis Buffer.
c) Preparation of Detection Liquid • 20×Anti-Phospho-Akt is diluted 20 times with Detection Buffer. • 20×Anti-Akt is diluted 20 times with Detection Buffer.
The compounds are diluted with DMSO, and the working concentration of compounds is 100 times of detection concentration.
Cells in logarithmic growth phase are collected, counted, and resuspended with complete culture medium;
The cell concentration is adjusted to appropriate concentration, and cell suspension is inoculated into 96 well plates at 50 μl per well;
Cells are incubated for more than 4 h in the 5% CO2 incubator at temperature of 37° C., relative humidity of 100%;
Cell plate is removed from the incubator. The cell suspension is aspirated gently, and 50 ul serum-free F12K medium is quickly added, then the cell plate is placed into the incubator to culture overnight.
The compounds are diluted in a linear gradient with DMSO.
0.5 ul compounds is added into the test well, mixed on oscillators, and incubated at room temperature for 2 hours.
Proportioned hEGF solution is added to test well at 50 μl per well, and the final concentration is 100 ng/ml. serum-free medium is added into The negative control well at 50 μl per well.
The solution is mixed on oscillator and incubated at room temperature for 2 hours.
The liquid in 96 well plates is aspirated by multichannel pipette or the supernatant is discarded gently. The proportioned complete lysate is added quickly at 50 μl per well.
The solution is mixed on oscillator and lysed at room temperature for 30 min.
16 μl cell lysate is transferred from the 96 well plates to white low volume 384 well plates, and the proportioned two pairs of detection antibody are added. The solution is mixed on oscillator, and incubated at room temperature for 4 hours to detect the readings.

[3] = target: T1, PI3 K γ (Homo sapiens, UniProt P48736); experiment: Inhibitory activity to PI3K γ, PI 3-Kinase (human) HTRF Assay kit; format: biochemical; conditions: for Inhibition rate % to PI3 K γ: dihydrate di-methanesulfonate
T1 construct: purchased Biology, Medicilon
T1 sequence (P48736 whole entry): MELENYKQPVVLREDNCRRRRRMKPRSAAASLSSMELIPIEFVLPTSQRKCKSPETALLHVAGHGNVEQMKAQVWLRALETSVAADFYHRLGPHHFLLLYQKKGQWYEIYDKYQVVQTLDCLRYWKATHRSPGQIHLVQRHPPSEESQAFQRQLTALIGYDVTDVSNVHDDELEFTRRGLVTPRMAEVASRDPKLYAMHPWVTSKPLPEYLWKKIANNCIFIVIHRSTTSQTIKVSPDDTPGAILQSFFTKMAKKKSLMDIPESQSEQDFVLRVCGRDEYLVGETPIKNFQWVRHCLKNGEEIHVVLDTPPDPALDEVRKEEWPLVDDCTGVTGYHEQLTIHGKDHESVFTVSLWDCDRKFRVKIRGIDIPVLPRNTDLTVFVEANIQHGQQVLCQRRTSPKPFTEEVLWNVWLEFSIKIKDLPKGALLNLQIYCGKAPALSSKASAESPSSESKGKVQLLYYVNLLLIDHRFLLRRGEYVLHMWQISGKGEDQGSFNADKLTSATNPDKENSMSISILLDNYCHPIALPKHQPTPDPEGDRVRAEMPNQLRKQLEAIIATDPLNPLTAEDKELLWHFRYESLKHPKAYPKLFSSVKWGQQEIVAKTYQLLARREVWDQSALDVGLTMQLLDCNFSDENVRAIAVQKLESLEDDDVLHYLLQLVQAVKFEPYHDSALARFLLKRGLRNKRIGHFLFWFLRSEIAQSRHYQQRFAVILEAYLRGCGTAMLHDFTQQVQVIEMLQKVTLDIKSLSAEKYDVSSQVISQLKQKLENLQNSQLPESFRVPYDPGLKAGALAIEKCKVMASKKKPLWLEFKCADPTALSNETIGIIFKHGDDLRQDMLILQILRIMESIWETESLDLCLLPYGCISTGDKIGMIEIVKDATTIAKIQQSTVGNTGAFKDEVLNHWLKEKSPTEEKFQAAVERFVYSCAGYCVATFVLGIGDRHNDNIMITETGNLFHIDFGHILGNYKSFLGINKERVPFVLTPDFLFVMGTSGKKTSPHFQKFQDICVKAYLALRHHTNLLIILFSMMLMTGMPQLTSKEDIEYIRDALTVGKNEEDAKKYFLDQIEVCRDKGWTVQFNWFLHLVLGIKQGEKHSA
How it was run: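 HTRF kinase assay with PI3Kγ at 80 ng/well, 10 μM PIP2 and 100 μM ATP (both final) in DTT-containing reaction buffer, 1% DMSO. Preliminary screen at 10 μM and 1 μM compound, followed by IC50 determination for selected compounds.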

Row | IC50 ([2]; PC-3 cells, dihydrate di-methanesulfonate) | Inhibition rate % to PI3 K γ ([3]; 1 μM) | Inhibition rate % to PI3 K γ ([3]; 10 μM) | SMILES | IC50 [1] | IC50 ([2]; Homo sapiens, PC-3, PC-3 cells) | inhibition at 1 µM ([3]; 1 μM, read-out: Inhibition rate % to PI3 K γ) | inhibition at 10 µM ([3]; 10 μM, read-out: Inhibition rate % to PI3 K γ)
1 | 74 nM | 29.82% | 81.29% | c1ccc(-c2ccnc3ccc(Nc4nc(NC5CC5)c5nc[nH]c5n4)cc23)cc1 [MED1007-91, N6-cyclopropyl-N2-(4-phenylquinoline-6-yl)-9H-purine-2,6-diammonium salt dihydrate di-methanesulfonate] | 654 nM |  |  | 
2 |  |  |  | COC[C@H]1OC(=O)c2coc3c2[C@@]1(C)C1=C(C3=O)[C@@H]2CCC(=O)[C@@]2(C)C[C@H]1OC(C)=O [Wortmannin, reference compound] | 21600 nM | 7.41 nM | 105% | 101%
